Data taken from patent US11261232B2, “TNFRSF14 / HVEM proteins and methods of use thereof” (MEMORIAL SLOAN KETTERING CANCER CENTER, priority 2015, dated 2022).

Assays:
[1] = test system: BCR signaling pathway in BCL1 mouse lymphoma cells; assay: BTK phosphorylation by flow cytometry in IgM-stimulated BCL1 cells; format: cell-based; conditions: solHVEM 10 μg/ml
Description: FIG. 4A-E. HVEM blocks BCR signaling in a cell autonomous and BTLA dependent manner. FIG. 4A and FIG. 4B, Quantification of FACS analysis of phosphorylated BTK (pBTK) expression in BCL1 cells after stimulation with anti-IgM in the presence of solHVEM (10 μg/m1) or Ibrutinib (10 nM) without (FIG. 4A) or with (FIG. 4B) the knockdown of BTLA (shBTLA); FIG. 4C, FACS analysis of BTLA expression on purified primary human FL B cells distinguishes samples with high (BTLA^hi) and low (BTLAlo) surface BTLA expression); FIG. 4D, FACS analysis for the indicated signaling molecules in human primary FL B cells that were BTLA^hi or BTLAlo and stimulated with anti-human IgG (3 min; 10 μg/ml and H2O2 1 mM) in the presence or absence of the soluble HVEM ectodomain (solHVEM; 10 μg/ml) (right); FIG. 4E, Percentage of pSyk inhibition was calculated by comparing the ratio of MFI of pSyk+/−solHVEM and was correlated to BTLA ratio of MFI (r=0.697, p=0.03, Purified FL B cells, n=10, grade 1 and grade 2).
Loss of HVEM and BTLA leads to BCR activation in murine lymphomas (FIGS. 2G and 3F). […] Briefly, the BCR signaling pathway in BCL1 mouse lymphoma cells was stimulated with IgM in the presence or absence of solHVEM (10 μg/ml) or the pharmacological BTK inhibitor ibrutinib (10 nM) and BTK phosphorylation was measured as an indicator of BCR pathway activation by flow cytometry. […]

[2] = test system: cell lines that expressed high levels of BTLA; assay: Immunoblot of ERK phosphorylation in treated cell lines; format: cell-based; conditions: 5 ug/ml; cell lines with high BTLA
Description: FIG. 19. In vitro effect of sTNFRSF14. Immunoblots of cell lines that were treated with 5 ug/ml of sTNFRSF14. Blots were probed as indicated.
Immunoblots were performed using whole cell lysates or supernatants as previously described (Wendel et al., 2004). In brief, 30 μg protein/sample was resolved on SDS-PAGE gels and transferred to Immobilon-P membranes (Millipore). Antibodies were against, pSyk (Cell Signaling Technologies #2712), Syk (Cell Signaling Technologies #2710), pBTK (Cell Signaling Technologies #5082), BTK (Cell Signaling Technologies #3533) pERK (Cell Signaling Technologies #9102), ERK (Cell Signaling Technologies #4370) and Tubulin (Sigma-Aldrich). Enhanced chemiluminescence was used for detection (ECL; GE Healthcare).

Molecule | BTK phosphorylation and activation ([1]; BCL1 cells stimulated with IgM) | BTK inhibition with knockdown of BTLA ([1]; BCL1 cells with shBTLA) | ERK phosphorylation levels [2]
solHVEM: Leu39-Val202 soluble HVEM ectodomain polypeptide of SEQ ID NO. 8 | blocked BTK phosphorylation and activation | knockdown of BTLA prevented BTK inhibition | 
sTNFRSF14: Pro37-Val202 soluble HVEM ectodomain polypeptide of SEQ ID NO. 6 (protein, listed as Homo sapiens) PALPSCKEDEYPVGSECCPKCSPGYRVKEACGELTGTVCEPCPPGTYIAHLNGLSKCLQCQMCDPAMGLRASRNCSRTENAVCGCSPGHFCIVQDGDHCAACRAYATSSPGQRVQKGGTESQDTLCQNCPPGTFSPNGTLEECQHQTKCSWLVTKAGAGTSSSHWV |  |  | clearly reduced
